Assay results as given in US20240358861A1, “COMPOSITIONS AND METHODS OF FLUORESCEIN SODIUM FOR EARLY DIAGNOSIS OF CERVICAL CANCER” (THE MOEIN FAMILY TRUST, priority 2023, published 2024).

Legend:
[1] = test system: cervix (cervical lesions); experiment: Colposcopy with AA then FNa staining, histopathology (biopsy) as reference diagnosis; format: in vivo, human; conditions: for Accuracy: correlation of staining with biopsy report; for Sensitivity / Specificity: diagnosis of high grade SIL or worse per histopathology; for Number of patients, stain negative, Total / Number of patients, stain positive, Total: all biopsies
Method: The FNa formulation is applied in 3 steps, each using either a cotton swab or plastic pipette for delivery and continuing until all solution is dispensed: a) Pre-rinse with 10 mL of normal saline to remove cervical mucus. b) Apply 10 mL of a FNa delivery solution over the cervix. Solution in the posterior cul-de-sac is picked up with the pipette and resprayed, at least once, then discarded. c) after imaging or diagnosis, post-rinse with 10 mL of normal saline.

cervix = experiment: Staining properties of FNa versus AA when tested; set-up: species or system human; conditions: in vivo
From the text: In some embodiments, FNa staining may be observed with an unaided eye. Using FNa as a staining agent enables use in low resource settings where access to a colposcope is not possible.

cervical lesions (CIN) = experiment: Lesion grade stained, shown by p16, Ki67 and c-myc FISH staining of specimens; set-up: species or system human

**Q.** With `CC(=O)O` [AA, acetic acid] as the compound, how does the “More false positives than the other stain” value ([1]; AA versus FNa, patients with low grade SIL per histopathology) read?
**A.** The value was “three”.

**Q.** What about the “Number of patients Acetic acid positive” value ([1]; No pap smear (n = 5)) of the same compound?
**A.** The value was 5.

**Q.** What about the “Number of patients Acetic acid positive” value ([1]; Pap smear High grade (n = 22)) of the same compound?
**A.** The value was 20.

**Q.** What about the “Number of patients Acetic acid positive” value ([1]; Pap smear Invasive (n = 5)) of the same compound?
**A.** The value was 5.

**Q.** And the “Number of patients Acetic acid positive” value ([1]; Pap smear Low grade (n = 46))?
**A.** Its value is 44.

**Q.** What about the Accuracy [1] of the same compound?
**A.** Its Accuracy is “Accuracy = 94%”.

**Q.** And the Sensitivity [1]?
**A.** Its Sensitivity is 94%.

**Q.** And the Specificity [1]?
**A.** Its Specificity is 43%.

**Q.** And the “Missed high grade lesions” value ([1]; in vivo)?
**A.** Its value is “Neither AA nor FNa missed any high grade lesions”.

**Q.** What about the “Number of patients, stain negative, Total” value [1] of the same compound?
**A.** The value was 4.

**Q.** And the “Number of patients, stain negative, biopsy Ca, HG, LG” value [1]?
**A.** The value was 1.

**Q.** And the “Number of patients, stain positive, Total” value [1]?
**A.** Its value is 74.

**Q.** What about the “Number of patients, stain positive, biopsy Ca, HG, LG” value [1] of the same compound?
**A.** The value was 70.

**Q.** And the Burning sensation (cervix)?
**A.** The Burning sensation was “burning sensation that AA causes”.

**Q.** And the Lesion grades stained (cervical lesions (CIN))?
**A.** Its Lesion grades stained is “stains any lesion from CIN 1 and worse”.

**Q.** How did the Number of patients ([1]; No pap smear (n = 5), stain Negative, Benign biopsy n = 6) turn out when `O=C1OC2(c3ccc(O)cc3Oc3cc(O)ccc32)c2ccccc21` [FNa, Fluorescein (3′,6′-dihydrospiro[isobenzofuran-1(3H),9′-[9H]xanthene]-3-one) sodium] was run?
**A.** The Number of patients was 0.

**Q.** And the Number of patients ([1]; No pap smear (n = 5), stain Negative, High grade biopsy (n = 26))?
**A.** Its Number of patients is 0.

**Q.** What about the Number of patients ([1]; No pap smear (n = 5), stain Negative, Invasive (n = 5)) of the same compound?
**A.** The Number of patients was 0.

**Q.** What about the Number of patients ([1]; No pap smear (n = 5), stain Negative, Low grade Biopsy (n = 41)) of the same compound?
**A.** Its Number of patients is 1.

**Q.** And the Number of patients ([1]; No pap smear (n = 5), stain Negative, all)?
**A.** Its Number of patients is 1.

**Q.** And the Number of patients ([1]; No pap smear (n = 5), stain Positive, Benign biopsy n = 6)?
**A.** The Number of patients was 0.

**Q.** And the Number of patients ([1]; No pap smear (n = 5), stain Positive, High grade biopsy (n = 26))?
**A.** Its Number of patients is 1.

**Q.** What about the Number of patients ([1]; No pap smear (n = 5), stain Positive, Invasive (n = 5)) of the same compound?
**A.** The Number of patients was 0.

**Q.** What about the Number of patients ([1]; No pap smear (n = 5), stain Positive, Low grade Biopsy (n = 41)) of the same compound?
**A.** Its Number of patients is 3.

**Q.** What about the Number of patients ([1]; No pap smear (n = 5), stain Positive, all) of the same compound?
**A.** Its Number of patients is 4.

**Q.** What about the Number of patients ([1]; Pap smear High grade (n = 22), stain Negative, Benign biopsy n = 6) of the same compound?
**A.** Its Number of patients is 2.

**Q.** What about the Number of patients ([1]; Pap smear High grade (n = 22), stain Negative, High grade biopsy (n = 26)) of the same compound?
**A.** Its Number of patients is 0.

**Q.** What about the Number of patients ([1]; Pap smear High grade (n = 22), stain Negative, Invasive (n = 5)) of the same compound?
**A.** The Number of patients was 0.

**Q.** What about the Number of patients ([1]; Pap smear High grade (n = 22), stain Negative, Low grade Biopsy (n = 41)) of the same compound?
**A.** Its Number of patients is 0.

**Q.** And the Number of patients ([1]; Pap smear High grade (n = 22), stain Negative, all)?
**A.** The Number of patients was 2.

**Q.** And the Number of patients ([1]; Pap smear High grade (n = 22), stain Positive, Benign biopsy n = 6)?
**A.** Its Number of patients is 0.

**Q.** And the Number of patients ([1]; Pap smear High grade (n = 22), stain Positive, High grade biopsy (n = 26))?
**A.** Its Number of patients is 12.

**Q.** What about the Number of patients ([1]; Pap smear High grade (n = 22), stain Positive, Invasive (n = 5)) of the same compound?
**A.** The Number of patients was 3.

**Q.** And the Number of patients ([1]; Pap smear High grade (n = 22), stain Positive, Low grade Biopsy (n = 41))?
**A.** The Number of patients was 5.

**Q.** What about the Number of patients ([1]; Pap smear High grade (n = 22), stain Positive, all) of the same compound?
**A.** Its Number of patients is 20.

**Q.** And the Number of patients ([1]; Pap smear Invasive (n = 5), stain Negative, Benign biopsy n = 6)?
**A.** Its Number of patients is 0.

**Q.** And the Number of patients ([1]; Pap smear Invasive (n = 5), stain Negative, High grade biopsy (n = 26))?
**A.** The Number of patients was 0.

**Q.** And the Number of patients ([1]; Pap smear Invasive (n = 5), stain Negative, Invasive (n = 5))?
**A.** The Number of patients was 0.

**Q.** And the Number of patients ([1]; Pap smear Invasive (n = 5), stain Negative, Low grade Biopsy (n = 41))?
**A.** The Number of patients was 0.

**Q.** And the Number of patients ([1]; Pap smear Invasive (n = 5), stain Negative, all)?
**A.** Its Number of patients is 0.

**Q.** And the Number of patients ([1]; Pap smear Invasive (n = 5), stain Positive, Benign biopsy n = 6)?
**A.** The Number of patients was 0.

**Q.** What about the Number of patients ([1]; Pap smear Invasive (n = 5), stain Positive, High grade biopsy (n = 26)) of the same compound?
**A.** The Number of patients was 4.

**Q.** What about the Number of patients ([1]; Pap smear Invasive (n = 5), stain Positive, Invasive (n = 5)) of the same compound?
**A.** The Number of patients was 1.

**Q.** And the Number of patients ([1]; Pap smear Invasive (n = 5), stain Positive, Low grade Biopsy (n = 41))?
**A.** The Number of patients was 0.

**Q.** What about the Number of patients ([1]; Pap smear Invasive (n = 5), stain Positive, all) of the same compound?
**A.** The Number of patients was 5.

**Q.** What about the Number of patients ([1]; Pap smear Low grade (n = 46), stain Negative, Benign biopsy n = 6) of the same compound?
**A.** The Number of patients was 4.

**Q.** What about the Number of patients ([1]; Pap smear Low grade (n = 46), stain Negative, High grade biopsy (n = 26)) of the same compound?
**A.** Its Number of patients is 0.

**Q.** And the Number of patients ([1]; Pap smear Low grade (n = 46), stain Negative, Invasive (n = 5))?
**A.** The Number of patients was 0.

**Q.** And the Number of patients ([1]; Pap smear Low grade (n = 46), stain Negative, Low grade Biopsy (n = 41))?
**A.** Its Number of patients is 3.

**Q.** And the Number of patients ([1]; Pap smear Low grade (n = 46), stain Negative, all)?
**A.** The Number of patients was 7.

**Q.** And the Number of patients ([1]; Pap smear Low grade (n = 46), stain Positive, Benign biopsy n = 6)?
**A.** The Number of patients was 0.

**Q.** And the Number of patients ([1]; Pap smear Low grade (n = 46), stain Positive, High grade biopsy (n = 26))?
**A.** The Number of patients was 9.

**Q.** And the Number of patients ([1]; Pap smear Low grade (n = 46), stain Positive, Invasive (n = 5))?
**A.** The Number of patients was 1.

**Q.** What about the Number of patients ([1]; Pap smear Low grade (n = 46), stain Positive, Low grade Biopsy (n = 41)) of the same compound?
**A.** The Number of patients was 29.

**Q.** What about the Number of patients ([1]; Pap smear Low grade (n = 46), stain Positive, all) of the same compound?
**A.** The Number of patients was 39.

**Q.** What about the Accuracy [1] of the same compound?
**A.** The Accuracy was “Accuracy = 94%”.

**Q.** What about the Sensitivity [1] of the same compound?
**A.** The Sensitivity was 94%.

**Q.** And the Specificity [1]?
**A.** Its Specificity is 86%.

**Q.** What about the “Number of patients, stain negative, Total” value [1] of the same compound?
**A.** Its value is 10.

**Q.** What about the “Number of patients, stain negative, biopsy Ca, HG, LG” value [1] of the same compound?
**A.** The value was 4.

**Q.** And the “Number of patients, stain positive, Total” value [1]?
**A.** The value was 68.

**Q.** And the “Number of patients, stain positive, biopsy Ca, HG, LG” value [1]?
**A.** Its value is 67.

**Q.** And the Burning sensation (cervix)?
**A.** Its Burning sensation is “did not cause the same burning sensation”.
